Assay results reported in ChEMBL document CHEMBL3507680, “University of Dundee, Gates Library screen for HepG2 cell viability”.

test: Human HepG2 cell viability assay in 384 well format; assay type: toxicity, cell-based; parameters: dose 125 nL, time 70.5 hour; concentration not given beside the values; details: HepG2 cells, read-out: Inhibition

| Structure (SMILES) | cytotoxicity at 70.5 h [%] |
| --- | --- |
| CC1CCN(C(=O)NCC(=O)N(C)CC(F)(F)F)C1 (centres undefined) | -4.12 |
| NC(=O)N1CCCC(C(=O)NCCOc2ccc3c(c2)OCO3)C1 (centres undefined) | 2.99 |
| O=C(C1CC=CC1)N1CC[C@H]2[C@@H]1CCC(=O)N2c1ccccc1 | -3.86 |
| Cc1ccc(CNC(=O)N2CCc3ccccc3C2CO)s1 (centres undefined) | -5.32 |
| CCOc1ncccc1NC(=O)N1CCN(CC(=O)NC)CC1 | -8.56 |
| OCCN1CCC(Cc2nccs2)CC1 | 1.19 |
| Cn1nc(C(C)(C)C)cc1NC(=O)Cn1ccccc1=O | -12 |
| CCN(Cc1ccco1)C(=O)C1=NN(c2ccccc2)C(=O)CN1 | 17.6 |
| O=S(=O)(c1ccc(C(F)(F)F)cc1)N1CCC(OCc2ccccn2)C1 (centres undefined) | 1.24 |
| CSc1ccccc1CC1CCCS(=O)(=O)C1 (centres undefined) | 3.79 |
| Cc1cnn(CC(=O)NCC2(O)CCCc3ccccc32)c1 (centres undefined) | 2.95 |
| COCc1nnc(-c2cccc(C(=O)OC(C)C)c2)o1 | -8.2 |
| CC(C)N(C)Cc1cnc2n1CCN(C(=O)Cc1ccccn1)C2 | 13.5 |
| CN(Cc1ccsc1)C(=O)c1ccc(F)c(NS(C)(=O)=O)c1 | -3.77 |
| CC(C)c1cccc(NC(=O)Cn2c(=O)n(C)c(=O)c3sccc32)c1 | 5.39 |
| O=C(NCc1cc(=O)n2c(n1)CN(CC1CC1)CCC2)c1ccsc1 | 17.3 |
| CCS(=O)(=O)NC1CCCN(c2cc(C)ccc2F)C1=O (centres undefined) | -1.61 |
| COCCN1C(=O)CCC12CCCN(C(=O)CC1CC1)CC2 (centres undefined) | -6.84 |
| COCc1cc(NCc2ccccc2-n2cncn2)ncn1 | -10.8 |
| COc1ccc(CNCCc2cc(F)cc3c2OCOC3)cc1O | 2.79 |
| COCCN1CCCC(c2nc(C)n3c(C)c(C)sc23)C1 (centres undefined) | -5.38 |
| Cc1cnn(CC2CCCN2C(=O)c2ccccc2-n2cccn2)c1 (centres undefined) | -12.6 |
| CC(C)(C)c1n[nH]c(C2CN(C(=O)Cn3ccccc3=O)CCO2)n1 (centres undefined) | -5.55 |

| Structure (SMILES) | cytotoxicity at 70.5 h [%] |
| --- | --- |
| CC(C)CCN1C2(CCN(C(=O)N(C)C)C2)c2ccccc2S1(=O)=O (centres undefined) | -17.2 |
| O=C(CN1CSCC1=O)NCC1CCN(c2ccccc2)C1 (centres undefined) | -8.38 |
| Cc1oc(-c2ccccc2)nc1CC(=O)NC1=NCCS1 | -11 |
| O=C1C(n2nnc(-c3ccsc3)n2)CCN1CC(F)(F)F (centres undefined) | -11.5 |
| Cn1cc(N2CCCC(SCc3nc(C4CC4)no3)C2=O)cn1 (centres undefined) | 29.8 |
| CS(=O)(=O)N1CCC2(CCN(C(=O)c3cccnc3)CC2)C1 | -7.54 |
| c1cncc(COCC2CN(Cc3ccncc3)Cc3ccnn3C2)c1 (centres undefined) | 1.86 |
| Cc1noc(-c2cnc(NCC3CCCO3)nc2-c2ccco2)c1C (centres undefined) | -7.96 |
| CCN(CC)S(=O)(=O)N(C)Cc1ccncc1 | -8.49 |
| COCCN1CCC(CNC(=O)Nc2ccc(-c3ccccc3)cc2)C1 (centres undefined) | 1.85 |
| COC(=O)c1ccc(S(=O)(=O)NC2CNC(=O)C2)cc1 (centres undefined) | 0.76 |
| Cc1cc(SC(C)(C)C)ccc1NC(=O)CNC(N)=O | -9.26 |
| Cc1cnn(CC2CN(Cc3cccc(OC(C)C)c3)CCO2)c1 (centres undefined) | -5.62 |
| CC(=O)N1CCC[C@@H](NCc2c[nH]c3ccccc23)[C@@H]1c1ccc(C)s1 | -8.53 |
| COCCS(=O)(=O)NC(C)c1cccc(-n2cccn2)c1 (centres undefined) | 0.445 |
| CCCNC(=O)C1(Cc2cc(-c3ccccc3)no2)CCN(C(C)=O)C1 (centres undefined) | 3.68 |
| Cc1ccccc1OCCSc1nnc(CC2CCS(=O)(=O)C2)n1C (centres undefined) | -7.8 |
| O=C(c1ccoc1)N1CC[C@@H]2O[C@@H](COCC3CCOCC3)CC[C@@H]21 | 16 |
| CC(=O)N1CCOCC2(CCN(Cc3ccc(C)s3)CC2)C1 | -4.66 |
| CN(CC(C)(CO)CO)C(=O)Nc1cc(Cl)cc(Cl)c1 | -4.43 |
| O=C(C1CCOCC1)N1CC[C@H](O)[C@@H]1Cc1cccnc1 | -0.0587 |
| Cc1n[nH]c2c1C(c1cnn(C)c1)SCC(=O)N2 (centres undefined) | -6.84 |
| O=C(Nc1ccc(CCN2CCOCC2)cc1)C1CCC1 | -3.21 |

| Structure (SMILES) | cytotoxicity at 70.5 h [%] |
| --- | --- |
| CN(Cc1ccc(-n2cccn2)cc1)C[C@@H]1CCCN2CCCC[C@H]12 | 24.9 |
| N#CCCn1nc(C(F)(F)F)c2c1CCCC2 | -6.63 |
| COc1ccc(CC(=O)N2CCC3(CC2)CCN(CC(C)C)C3=O)cc1 | -10.5 |
| CC(=O)N(Cc1ncc(C)o1)C1CCN(Cc2nnc(C3CC3)o2)C1 (centres undefined) | 10 |
| Cc1cccc(CN2CCC3(CCCN(Cc4cnn(C)c4)C3)C2=O)n1 (centres undefined) | -18.3 |
| COc1ncccc1C(=O)N1CCC2(CC1)CC(OC)CO2 (centres undefined) | -6.77 |
| CC(=O)N1CCCC2(C1)CN(c1nncs1)CCO2 (centres undefined) | -4.62 |
| COCCNC(=O)c1cc(-n2cccc2)ccc1Cl | -23.7 |
| Cc1ccc(CN2CCC3(CC2)CN(c2ccccc2)C(=O)CO3)o1 | 23.7 |
| CC(=O)N1CCCC2(C1)CN(c1ncc(C)cn1)CCO2 (centres undefined) | -17.1 |
| COc1c(CNCc2cccnc2N2CCN(C)CC2)c(C)nn1C | 4 |
| O=C(c1ccc(C2CCCO2)s1)N1CCS(=O)(=O)CC1 (centres undefined) | -8.51 |
| COc1ccc(COCC(O)CNC(=O)c2ccc(C)c(F)c2)cc1 (centres undefined) | -1.89 |
| Cc1nc(CN2CCc3ncnc(C4CCOC4)c3CC2)cs1 (centres undefined) | 0.032 |
| COc1ccc(C(=O)N2CCC(Nc3ccc(C)nn3)CC2)cc1 | 0.696 |
| CNc1nc(C2CCCN2C(C)=O)nc2c1CN(C1CCCC1)CC2 (centres undefined) | -4.73 |
| O=C(CC1CC1)NC1CCc2c(ccc(=O)n2CC2CC2)C1 (centres undefined) | 0.842 |
| O=C(CCn1ccnc1)N1CCC(c2nnc(-c3ccccn3)o2)CC1 | -3.21 |
| CC(=O)N1CCCC(Cc2cnc(C(=O)N3CCC(C)CC3)cn2)C1 (centres undefined) | -5.67 |
| COc1cc(C)ccc1S(=O)(=O)N[C@H]1CN(C(C)=O)C[C@@H]1C1CC1 | 18.1 |
| CC(C)(NC(=O)c1ccc(-c2ccc(F)cc2)s1)C(N)=O | 4.62 |
| CCN(CC)C(=O)[C@@H]1C[C@@H](NC(=O)c2ccn(C(C)(C)C)c2)CN1C | -4.81 |
| COCC(=O)NCC[C@H]1CC(C)(C)Oc2ccc(OC)cc21 | -2.28 |

| Structure (SMILES) | cytotoxicity at 70.5 h [%] |
| --- | --- |
| CCNc1ncc(C(=O)N2CCc3c(nc(C)nc3N(C)C)C2)cn1 | 25.4 |
| CCC(NC(=O)c1cnc(N(C)C)nc1C)c1ccc(S(C)(=O)=O)cc1 (centres undefined) | -8.61 |
| COC(=O)Cc1cn2cc(C(F)(F)F)ccc2n1 | 13.2 |
| Cn1c(SCc2noc(C(C)(C)C)n2)nnc1C1CCS(=O)(=O)C1 (centres undefined) | -7.06 |
| CC(CN1CCOCC1)NC(=O)c1cccc2cn[nH]c12 (centres undefined) | -3.84 |
| Cc1nc(CNC(=O)NC2CCN(c3ncccc3Cl)C2)no1 (centres undefined) | -3.51 |
| COc1ncc(NS(=O)(=O)c2ccc(F)c(F)c2)c(OC)n1 | -1.82 |
| CCN1CC2(CC1=O)CN(C(C)=O)CCN(S(=O)(=O)CC)C2 (centres undefined) | -2.5 |
| Cc1cc(-c2nnn(CCC(N)=O)n2)ccc1F | -9.65 |
| Cc1noc(C)c1CN1C[C@H](OCC(=O)N(C)C)[C@H]2OCCC[C@H]21 | -6.96 |
| COc1ccccc1CC(C)(C)NC(=O)CC(F)(F)F | -11.8 |
| O=C1CN(Cc2cnc3c(-c4ccccc4)cnn3c2)CCCN1 | -6.12 |
| CN(C)C(=O)N1CC2(CCN(S(C)(=O)=O)CC2)c2ccccc21 | -1.58 |
| COc1cccc([C@H]2CN(C(=O)c3noc4c3CCCC4)C[C@@H]2N)c1 | -3.29 |
| CCOC1COC2(CCN(S(=O)(=O)c3ccc(F)cc3)CC2)C1 (centres undefined) | -12.9 |
| Cc1oc(C(=O)O)cc1S(=O)(=O)Nc1cccc(-n2nccc2C)c1 | -5.02 |
| Cc1cc(C2CCCCN2C(=O)c2cccn2C)nc2nccn12 (centres undefined) | 4.86 |
| Cn1ccnc1CN1CCC2(CC1)CC(N1CCCC1)c1ccccc12 (centres undefined) | -4.57 |
| c1ccc(CN2CCCn3nnc(COc4ccccn4)c3C2)nc1 | -11.2 |
| O=C1NC2(CCN(C(=O)Cc3ccsc3)CC2)CC1c1ccccc1 (centres undefined) | 0.488 |
| CCn1cc2c(n1)C(COC)CN(C(=O)c1ccccn1)C2 (centres undefined) | -9.71 |
| COCCC(=O)NCCn1nc(C2CCNC2)c2cccnc21 (centres undefined) | 14.1 |
| Cc1oc(-c2ccc(Cl)cc2)nc1C(=O)NC1=NCCS1 | 11.2 |

| Structure (SMILES) | cytotoxicity at 70.5 h [%] |
| --- | --- |
| O=C(Nc1ccccc1)c1cc2n(n1)CCCN(C(=O)N1CCCC1)C2 | 22.6 |
| Cc1nc2c(c(N3CCCC(CO)C3)n1)CCN(Cc1ccco1)CC2 (centres undefined) | 16.9 |
| CC(=O)NCC1CCN(C(=O)c2c(C)[nH]c3ccc(Cl)cc23)CC1 | -0.185 |
| Nc1cnc(-c2cccc3ccnn23)cn1 | 14.2 |
| CCC1CN(CC(=O)NCCN2CCCC2)c2ccccc2S1 (centres undefined) | -2.98 |
| CC(C)N1CCC(Cc2cncc(-c3cc(F)ccc3C(=O)O)n2)CC1 | 0.0602 |
| Cc1c(NC(=O)NC(C)CCO)cccc1OC1CCCC1 (centres undefined) | -2.19 |
| COc1cc(F)ccc1-c1cnc(N)cn1 | -13.6 |
| COCCN(CC1CCCN(C2Cc3ccccc3C2)C1)C(=O)CO (centres undefined) | -10 |
| Cn1ccnc1NC[C@@H]1CCC[C@@H]2CN(CC3CC3)C[C@@H]21 | -9.55 |
| Cc1ccc(C)c(OCc2cc(C(=O)N(C)Cc3cnn(C)c3)no2)c1 | -8.7 |
| CN1CCOC(CNC(=O)CCCOc2ccccc2F)C1 (centres undefined) | -15.3 |
| CC(C)Cc1nc(OCC(N)=O)c(C#N)c2c1CCCC2 | -9.41 |
| Cc1cnn(C2CCCN(C(=O)c3cn4ccccc4n3)C2)c1 (centres undefined) | 17.4 |
| COc1ccc(F)cc1C[S+]([O-])CC(=O)NCC(C)C (centres undefined) | -0.815 |
| Cc1noc(C)c1CN1CCc2ncnc(-c3cnn(C)c3)c2CC1 | -8.16 |
| CN1CC[C@H](N(C)Cc2ccccc2)C[C@H](O)C1 | -10.5 |
| CCOCCN1CCN(Cc2nnc(C3CC3)o2)CC1 | -2.06 |
| CC(=O)c1ccc(N2CCCC(CO)(Cc3ccccc3F)C2)nc1 (centres undefined) | 20.4 |
| COCCN1CCN(c2nc(O)cc(Cc3ccccc3F)n2)CC1 | -5.81 |
| CN1CCN(Cc2cn3c(n2)CN(Cc2ccncc2)CC3)CC1 | 14 |
| Cn1c(Cn2cccn2)nnc1C1CCN(Cc2cccnc2)CC1 | -3.7 |
